Source: patent US4076819A, “Thieno-pyridine derivatives and therapeutic composition containing same” (priority 1975, dated 1978)

Columns and labels:
in vivo = conditions: mouse, mice, intravenous route, calculated by method of Miller and Tainter, read-out: LD50 /24 hrs/kg body weight
blood plate aggregation = assay: Inhibiting activity on blood plate aggregation (adenosine diphosphate-induced, turbidimetric assay on plasma of treated rats); assay type: in vivo; conditions: Rattus norvegicus, rats administered 100 mg/kg, read-out: percent inhibition on blood plate aggregation
Description: 2. Inhibiting activity on blood plate aggregation
Rat plasma, prepared to contain 600,000±20,000 blood platelets per mm^3 is normally cloudy. Addition of adenosine diphosphate induces blood plate aggregation and, thus, an increase of the light transmission, a phenomenon readily measurable with a spectrophotometer. When the same test is effected with a plasma prepared from the blood of an animal which has been administered 100 mg/kg of a derivative having an inhibiting effect on blood plate aggregation, there is no aggregation of the blood plates and the serum remains cloudy. The turbidimetric assay effected with a spectrophotometer provides a measure of the inhibiting activity on blood plate aggregation of the test derivatives.

[1] = tested on: ovalbumin-induced systemic edema; assay: Ovalbumin-induced systemic edema method (anti-inflammatory action); assay type: in vivo; conditions: rats, oral 100 mg/kg given 1 h before and simultaneously with ovalbumin
Description: (b) Ovalbumin-induced systemic edema method
Rats are administered a simultaneous intraperitoneal injection of 1 ml ovalbumin and 0.5 ml of a 1% aqueous Evans Blue solution. The animals of the treated group are additionally administered orally 100 mg/kg of the test derivative, one hour prior to ovalbumin administration and simultaneously with said ovalbumin administration. The intensity of the phenomenon thus induced is scored according to a scale from 1 to 5, according to the progress of the inflammatory syndrome. The determinations are effected after 2 hours and after 3 hours. Thus are determined the mean intensity of the edema and the percent decrease of the edema reaction.

[2] = tested on: carrageenin-induced edema; assay: Localized carrageenin-induced edema method (anti-inflammatory action); assay type: in vivo; conditions: rats, oral 100 mg/kg given 1 h before, simultaneously with, and 1 h and 2.5 h after carrageenin
Description: (a) Localized carrageenin-induced edema method
A 1% carrageenin solution (1 ml) is injected in the metatarsal flexor muscles of the right hind limb of rats at time 0. The animals of the treated group are additionally administered orally 100 mg/kg of the test derivative, respectively 1 hour prior to and then simultaneously with the phlogogenic agent, and then one hour and 2.5 hours thereafter. The percent anti-inflammatory activity, as a function of time, is determined by measurements effected with a ROCH micrometer at times 0, 1 hour, 2 hours, 3 hours and 5 hours after carrageenin administration.

SMILES	LD50 at 24 h (in vivo) [mg/kg]	inhibition at 100 mg/kg (blood plate aggregation) [%]	Percent decrease (of the edema reaction) After 2 hours [1] [%]	Percent decrease (of the edema reaction) After 3 hours [1] [%]	Percent anti-inflammatory activity after 1 hour [2] [%]	Percent anti-inflammatory activity after 2 hours [2] [%]	Percent anti-inflammatory activity after 5 hours [2] [%]
CCCNC(=O)OC1CN(C)Cc2sccc21 (centres unmarked) [Derivative 9, 6-Methyl-4-N-propylcarbamoyloxy-4,5,6,7-tetrahydro-thieno-[2,3-c]-pyridine]	220	86					
CN1Cc2sccc2C(O)C1 (centres unmarked) [Derivative 10]	340						
O=[N+]([O-])c1ccccc1CN1Cc2sccc2C(O)C1 (centres unmarked) [Derivative 22]		93					
CC(=O)OC1CN(Cc2ccccc2Cl)Cc2sccc21 (centres unmarked) [Derivative 18]		74	42	58	34	44	57
OC1CN(Cc2ccc(Cl)cc2)Cc2sccc21 (centres unmarked) [Derivative 20]	110						
O=C(CN1CCCC1)N1Cc2sccc2C(O)C1 (centres unmarked) [Derivative 2, 4-Hydroxy-6-pyrrolidinoacetyl-4,5,6,7-tetrahydro-thieno[2,3-c]-pyridine]	225		38	44	35	48	55
CC(=O)CCN1Cc2sccc2C(O)C1 (centres unmarked) [Derivative 16]	250						
CC(=O)OC1CN(C(=O)C(Cl)Cl)Cc2sccc21 (centres unmarked) [Derivative 25]		84					
CC1c2sccc2C(O)CN1C (centres unmarked) [Derivative 11]	220						
O=[N+]([O-])c1ccc(CN2Cc3sccc3C(O)C2)cc1 (centres unmarked) [Derivative 24]	150						
O=C(Nc1ccccc1)N1Cc2sccc2C(O)C1 (centres unmarked) [Derivative 5, 4-Hydroxy-6-N-phenylcarbamoyl-4,5,6,7-tetrahydro-thieno[2,3-c]-pyridine]		89	33	43	41	50	55
COc1ccc(CN2Cc3sccc3C(OC(C)=O)C2)cc1 (centres unmarked) [Derivative 21]	245						
CC(=O)CCN1Cc2ccsc2C(O)C1 (centres unmarked) [Derivative 7, 7-Hydroxy-5-(3-oxo-butyl)-4,5,6,7-tetrahydro-thieno[3,2-c]-pyridine]	260		41	52	42	56	60
CC(=O)OC1CN(Cc2ccccc2Cl)Cc2ccsc21 (centres unmarked) [Derivative 8, 7-Acetoxy-5-o-chlorobenzyl-4,5,6,7-tetrahydro-thieno[3,2-c]-pyridine]	200						
CNC(=O)OC1CN(C)Cc2sccc21 (centres unmarked) [Derivative 14]	280						
CC(=O)OC1CN(C)Cc2sccc21 (centres unmarked) [Derivative 12]	260		46	59	37	50	58
Cc1ccc(S(=O)(=O)N2Cc3sccc3C(O)C2)cc1 (centres unmarked) [Derivative 4, 4-Hydroxy-6-p.toluenesulfonyl-4,5,6,7-tetrahydro-thieno[2,3-c]-pyridine]		92					
CN1Cc2ccsc2C(O)C1 (centres unmarked) [Derivative 29]	350	88	49	59	45	55	61
COc1cc(C(=O)N2Cc3sccc3C(O)C2)cc(OC)c1OC (centres unmarked) [Derivative 26]			51	63	36	49	54
O=[N+]([O-])c1ccc(CN2Cc3ccsc3C(O)C2)cc1 (centres unmarked) [Derivative 1, 7-Hydroxy-5-p.nitrobenzyl-4,5,6,7-tetrahydro-thieno[3,2-c]-pyridine]	90						
